Values of other authors as cited in US20210361700A1 (priority 2020, published 2021).

System: influenza
Details: older mice

## Vitamin E
  resistance to and pathogenesis of influenza: Increases resistance to and
